From patent publication US11192902B1, “Heterocyclic diazenyl pyridinone copper(II) complexes as pharmacological antitumor agents” (King Abdulaziz University, priority 2020, dated 2021)

How the values were obtained:
[1] = test system: human primary hepatocytes THLE-2 (normal cell line); assay: Cytotoxic activity test on normal cell line THLE-2 (MTT assay); type: cell-based
Procedure: The samples were tested against the human primary hepatocytes THLE-2 (normal cell line, ATCC). Cells were maintained at sub-confluency at 37° C. in humidified air containing 5% CO2. The samples' concentrations ranged between (100 to 0.78 μg/ml) and the MTT assay was used to assess cell death.

[2] = test system: MCF-7 human breast adenocarcinoma cells; assay: Cytotoxicity against MCF-7 human breast adenocarcinoma cells (MTT); type: cell-based; details: MCF-7 cells, 48 hrs

CCCCCCn1c([O-])c(N=Nc2ccc(C)cc2)c(C)c(C#N)c1=O.CCCCCCn1c([O-])c(N=Nc2ccc(C)cc2)c(C)c(C#N)c1=O.[Cu+2] [D4]
Mean IC50, THLE-2 human normal hepatocytes ([1]; THLE-2 cells, 48 hrs, MTT, 100 to 0.78 μg/ml, mean): 169.76 μg/mL
effect on the normal cell line (safety) ([1]; THLE-2 normal cell line, at the high concentration of 100 ppm): safe
Mean IC50, MCF-7 human breast adenocarcinoma cells [2]: 83.72 µg/mL
